Assay results from patent publication US20200397853A1, “TREATMENT OF A HEART DISEASE” (Yeda Research and Development Co. Ltd., priority 2018, published 2020).

Assays:
Format in all cases: in vivo, mice
[1] = system: infarcted hearts; assay: Multiplex cytokine ELISA of infarcted hearts
Protocol: Myocardial infarction in adult mice was performed as follows: mice were sedated with isoflurane (Abbott Laboratories) and following tracheal intubation, were artificially ventilated. Lateral thoracotomy at the third intercostal space was performed by blunt dissection of the intercostal muscles following skin incision. Following ligation of the left anterior descending coronary artery, 2 mg/animal/day of GA (batch #164F0105; 24992916) or PBS were injected according to the experimental protocol (described in the Results). Following treatment, thoracic wall incisions were sutured with 6.0 non-absorbable silk sutures, and the skin wound closed using a skin adhesive. Mice were then warmed for several minutes until recovery. For native protein extraction, hearts were minced using a mortar and pestle under liquid nitrogen, and the resulting powder was further homogenized using rotor—stator homogenizer with a native extraction buffer (0.5% triton in PBS with protease inhibitor cocktail). Resulting extracts were equilibrated for protein concentration, and subjected to mouse cytokine 16-plex ELISA (#110949MS, Quansys Biosciences, USA) according to manufacturer instructions. To broaden the understanding of the molecular effectors influenced by GA treatment, the cytokine milieu of the GA treated infarcted hearts was analyzed. For that, infarcted hearts were harvested at 24 h, 96 h and 14 days post MI. Native protein lysates were prepared and subjected to multiplex cytokine ELISA. At 24 hr post MI, both IL-6 and IL-10 levels were increased (FIG. 6A). […] Importantly, the levels of IL-6 as well as those of other pro-inflammatory cytokines in GA treated hearts were reduced 14 days post MI (FIG. 6C). These findings might underscore the importance of regulating a transient expression of pro-inflammatory cytokines occurring in a pro-regenerative scenario, similar to what was detected in the GA treated hearts. Another cytokine that was elevated after GA treatment was IL-4 (FIG. 6B). Both IL-10 and IL-4 are considered as anti-inflammatory cytokines that induce Th-2 differentiation, a cell population previously shown to be affected by GA (40-42). […] This chemokine was previously shown to induce IL-6 expression and to have beneficial effect on cardiac remodeling post MI^29. […] Taken together, the differential expression of cytokines in the GA treated infarcted heart might reveal the molecular mechanism that allows GA to modulate the immune response, supporting cardiac regeneration post MI.

[2] = system: mouse model of MI by LAD ligation; assay: Echocardiography of heart function after myocardial infarction (LAD ligation)
Protocol: (§1) Myocardial infarction in adult mice was performed as follows: mice were sedated with isoflurane (Abbott Laboratories) and following tracheal intubation, were artificially ventilated. Lateral thoracotomy at the third intercostal space was performed by blunt dissection of the intercostal muscles following skin incision. Following ligation of the left anterior descending coronary artery, 2 mg/animal/day of
(§2) GA (batch #164F0105; 24992916) or PBS were injected according to the experimental protocol (described in the Results). Following treatment, thoracic wall incisions were sutured with 6.0 non-absorbable silk sutures, and the skin wound closed using a skin adhesive. Mice were then warmed for several minutes until recovery.
Heart function was evaluated by transthoracic echocardiography performed on sedated mice (isoflurane, Abbott Laboratories) using a Vevo 3100 VisualSonics device.
Mice were divided to the following experimental groups: […]
4. Long GA treatment—performing MI followed by GA (2 mg/animal/day) given i.p. from day 0 up to day 14 or until first animal dies. N=5.
Echo measurements were performed at baseline (day 0), day 2, day 14 and day 35 post MI. Histology analysis was performed post mortem.
Short GA treatment—performing MI followed by GA (2 mg/animal/day) administered i.p. from day 0 up to day 14. N=10. […]
In the clinic, MI patients currently reach medical care in a matter of several hours. To find out the relevance and efficacy of delayed administration of GA, the present inventors created MI by LAD ligation and treated animals at the day of injury, 24 or 48 hours post MI.

[3] = system: mouse model of MI by LAD ligation; assay: Heart section scar assessment (Masson-Trichrome) after MI
Protocol: as §1, §2
Mouse heart tissues were fixed in 4% paraformaldehyde (PFA) and sectioned. For analysis of cardiac regeneration, following myocardial infarction procedure, paraffin sections were cut through the entire ventricle from apex to base into serial sections with intervals of 0.3 mm. Paraffin sections were cut frontally to include base to apex in each section. […] Scar size was quantified in the section containing the papillary muscle region using ImageJ software based on Masson's trichrome staining. Scar size was calculated as scar size relative to total section size.

[4] = system: Stat3; assay: Western-blot analysis of pStat3 in hearts post MI; conditions: 4 days after injury (FIG. 7)
Protocol: as §1, §2
Western blotting was performed with the SDS-PAGE Electrophoresis System. Sample extracts were prepared and transferred to PVDF membranes. The following primary antibodies were used: anti-Gapdh (Sigma, PLA0125, 1:3000), anti-pStat3 (1:1000) Horseradish peroxidase anti-mouse, anti-rabbit or anti-goat (Sigma-Aldrich, 1:2000) were used as a secondary antibody.

[5] = system: infarcted hearts; assay: FACS analysis of neutrophils and macrophages in infarcted hearts
Protocol: Myocardial infarction in adult mice was performed as follows: mice were sedated with isoflurane (Abbott Laboratories) and following tracheal intubation, were artificially ventilated. Lateral thoracotomy at the third intercostal space was performed by blunt dissection of the intercostal muscles following skin incision. Following ligation of the left anterior descending coronary artery, 2 mg/animal/day of GA (batch #164F0105; 24992916) or PBS were injected according to the experimental protocol (described in the Results). Following treatment, thoracic wall incisions were sutured with 6.0 non-absorbable silk sutures, and the skin wound closed using a skin adhesive. Mice were then warmed for several minutes until recovery. Single cell suspensions of hearts harvested at different time point post MI were generated immediately before analysis by flow cytometry, as previously described^21. Briefly, single hearts were minced and digested in collagenase II/Dispase solution in PBS with 1 mM CaCl2 (2 mg/ml collagenase II, 1.2 U/ml Dispase) for 3 rounds of 15 minutes at 37° C., followed by mechanical separation by pippetation. Digested samples were passed through a 40-μm filter, washed, and suspended in FACS buffer (PBS 0.5% BSA, 2 mM EDTA) for staining. Samples were stained with antibodies from Miltenyi biotec:CD45-Viogreen, CD11b-PE, Ly6G-Vioblue, Ly6C-FITC, F4/80-APC, CCR2-APC-Vio770, MHCII-PE-Vio770. 7-AAD was used as a viability marker. Staining and sample analysis were all performed by standard procedure on a LSR-II FACS machine. GA has an established influence on the immune response, especially the T-helper 2 (Th2) lymphocyte population^22-24. To investigate the molecular mechanisms of GA effects, the present inventors sought out to characterize the immune response of infarcted hearts after GA treatment. First, examining the changes in relevant immune populations. For that, infarcted hearts were analyzed by FACS using markers for neutrophils and macrophages. To follow the dynamics of the immune response after MI, injured hearts at 24 hr, 96 hr and 14 days post MI were harvested. […] The effect of GA diminishes after 96 hr, with the expected reduction in neutrophils. […] This trend was recently shown to promote cardiac regeneration^25, and therefore might explain GA regenerative effect.

In the case of glatiramer acetate [GA], the IL-6 level ([1]; 24 hr post MI (FIG. 6A)) is reported as “increased”, the IL-10 level ([1]; 24 hr post MI (FIG. 6A)) is reported as “increased” and the “levels of Monocyte Chemoattractant Protein-1 (MCP-1)” value ([1]; 96 hr post MI (FIG. 6B)) is reported as “significant enhancement”. For the same substance, the IL-6 level ([1]; 14 days post MI (FIG. 6C)) was “reduced”, the “levels of other pro-inflammatory cytokines” value ([1]; 14 days post MI (FIG. 6C)) was “reduced” and the IL-4 level ([1]; FIG. 6B) was “elevated”. The “fractional shortening (FS), reduction from baseline” value ([2]; 35 d after MI, GA i.p. 14 d vs PBS (FIG. 1C)) was “smaller reduction”, the “cardiac function (EF and FS)” value ([2]; 35 days after MI, larger group, all animals treated by the protocol, vs PBS (FIGS. 2A, B)) was “improved significantly” and the “EF of the 3 representative treated mice” value ([2]; 35 d post MI, vs PBS (FIG. 3B)) was “improved EF”. The “Ejection Fraction (EF)” value ([2]; 35 d post injury, GA 2 mg/animal/day i.p. day 0 to 14, vs PBS (FIG. 1A)) was “clear beneficial effect”, the “cardiac function (EF, FS), treatment delayed 24 hours” value ([2]; treatment started 24 hours post MI, similar levels to treatment at the day of injury (FIGS. 4A-B)) was “improved cardiac function” and the “cardiac function (EF, FS), treatment delayed 48 hours” value ([2]; treatment started 48 hours post MI, similar levels to treatment at the day of injury (FIGS. 4A-B)) was “improved cardiac function”. The “cardiac scarring (Masson-Trichrome stained area relative to total area)” value ([3]; 35 days after MI, larger group, vs PBS (FIG. 2C)) was “improved significantly”, the “scar area of the 3 representative treated mice” value ([3]; 35 d post MI, Masson-Trichrome, vs PBS (FIG. 3A)) was “smaller scar area” and the “levels of phosphorylated Stat3 (pStat3)” value [4] was “increased levels”. For the same substance, the “levels of phosphorylated Stat3 (pStat3)” value ([4]; listed as Cop) was “upregulation”, the “fraction of neutrophils in the infarcted hearts” value ([5]; 24 h post MI, vs PBS (FIGS. 5A, B)) was “decreased” and the “macrophage fraction of immune cells” value ([5]; 24 hr post MI, vs PBS (FIGS. 5C, D)) was “increase”. The “effect on macrophage fraction” value ([5]; after 96 hr post MI) was “diminished” and the effect on neutrophils ([5]; after 96 hr post MI) was “diminishes”.
